A value given as a limit tells only on which side of the number the result lay.

A short description of this assay: Inhibition of protein kinase C(1:1mixture of PKC alpha & beta) expressed in Sf9 insect cells. The assay is classed as cell-based.

By IC50 is commonly meant the concentration at which inhibition is half-maximal. As for `NCc1ccc(-c2ccc(-c3cccs3)s2)s1`, the half-maximal inhibitory concentration (IC50) amounted to 7 µM. The result for `OCc1ccc(-c2ccc(-c3cccs3)s2)s1` reads 4 µM; that for `O=Cc1ccc(-c2ccc(-c3ccc(CO)s3)s2)s1`, 0.7 µM. For the compound `O=Cc1ccc(-c2ccc(-c3cccs3)s2)s1`, the half-maximal inhibitory concentration (IC50) came out at 0.7 µM. The result for `O=Cc1cccs1` [2-THIOPHENENECARBOXALDEHYDE] reads above 4000 µM; that for `O=Cc1ccc(-c2cccs2)s1`, 700 µM; that for `CN1CCN(CCCN2c3ccccc3Sc3ccc(C(F)(F)F)cc32)CC1` [TRIFLUOPERAZINE], 500 µM. As to `c1csc(-c2ccc(-c3cccs3)s2)c1`, the IC50 turned out to be 10 µM. The result for `O=Cc1ccc(-c2ccc(-c3ccc(C=O)s3)s2)s1` reads 0.3 µM; that for `N#Cc1ccc(-c2ccc(-c3cccs3)s2)s1`, 2 µM.

Values taken from ChEMBL document CHEMBL1130599, “Novel protein kinase C inhibitors: alpha-terthiophene derivatives” (Bioorg Med Chem Lett, 1998).
